Experimental data taken from ChEMBL document CHEMBL3774383, “Design and synthesis of [(125)I]Pyricoxib: A novel (125)I-labeled cyclooxygenase-2 (COX-2) inhibitors” (Bioorg Med Chem Lett, 2016).
pIC50: −log10 of the molar value.

Experiments:
[1] = molecular target: T1, Prostaglandin G/H synthase 1 (Ovis aries, UniProt P05979); experiment: Inhibition of ovine COX-1 preincubated for 5 mins followed by addition of arachidonic acid as substrate measured after 2 mins by fluorescence analysis
T1 sequence (P05979 whole entry): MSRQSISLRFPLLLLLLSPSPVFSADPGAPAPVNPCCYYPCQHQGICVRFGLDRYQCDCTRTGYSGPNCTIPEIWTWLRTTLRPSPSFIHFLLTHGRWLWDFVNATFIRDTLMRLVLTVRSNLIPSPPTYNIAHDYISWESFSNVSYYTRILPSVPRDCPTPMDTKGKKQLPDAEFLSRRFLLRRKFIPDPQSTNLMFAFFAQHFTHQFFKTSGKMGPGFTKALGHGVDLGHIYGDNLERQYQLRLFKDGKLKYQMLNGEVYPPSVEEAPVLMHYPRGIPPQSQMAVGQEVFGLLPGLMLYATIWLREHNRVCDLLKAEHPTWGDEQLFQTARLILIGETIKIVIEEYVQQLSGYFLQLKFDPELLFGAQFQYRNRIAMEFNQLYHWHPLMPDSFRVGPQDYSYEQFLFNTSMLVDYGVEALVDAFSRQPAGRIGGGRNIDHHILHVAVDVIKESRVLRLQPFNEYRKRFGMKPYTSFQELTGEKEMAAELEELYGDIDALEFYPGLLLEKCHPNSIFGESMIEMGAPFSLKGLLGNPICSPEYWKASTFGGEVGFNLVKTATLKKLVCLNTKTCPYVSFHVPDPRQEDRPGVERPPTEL

[2] = molecular target: T2, Prostaglandin G/H synthase 2 (Homo sapiens, UniProt P35354); experiment: Inhibition of COX-2 (unknown origin)
T2 sequence (P35354 whole entry): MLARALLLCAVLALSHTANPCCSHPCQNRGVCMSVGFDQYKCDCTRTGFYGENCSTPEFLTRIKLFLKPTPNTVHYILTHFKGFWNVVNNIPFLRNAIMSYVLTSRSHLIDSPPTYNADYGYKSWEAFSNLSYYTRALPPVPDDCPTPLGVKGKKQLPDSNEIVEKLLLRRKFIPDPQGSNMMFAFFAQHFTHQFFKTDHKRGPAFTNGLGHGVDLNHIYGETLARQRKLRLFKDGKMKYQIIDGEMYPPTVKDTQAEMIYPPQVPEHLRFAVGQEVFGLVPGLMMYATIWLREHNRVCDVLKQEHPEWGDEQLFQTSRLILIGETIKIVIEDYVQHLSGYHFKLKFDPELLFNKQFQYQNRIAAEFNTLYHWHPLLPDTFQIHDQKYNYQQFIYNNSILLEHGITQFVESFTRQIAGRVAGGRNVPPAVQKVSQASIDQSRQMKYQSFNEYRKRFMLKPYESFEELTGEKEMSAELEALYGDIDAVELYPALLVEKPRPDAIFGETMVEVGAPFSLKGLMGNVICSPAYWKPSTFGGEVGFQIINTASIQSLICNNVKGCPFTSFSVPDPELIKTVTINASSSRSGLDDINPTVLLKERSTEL

[3] = molecular target: COX-1/COX-2 (Homo sapiens) (UniProt P35354+P23219); experiment: Selectivity index, ratio of IC50 for COX-2 (unknown origin) to COX-1 (unknown origin)
[4] = molecular target: T2, Prostaglandin G/H synthase 2
[5] = Selectivity index,ratio of IC50 for ovine COX-1 to recombinant human COX-2

Chain of COX-1/COX-2 (Homo sapiens) (P23219 whole entry, looked up, one chain of several): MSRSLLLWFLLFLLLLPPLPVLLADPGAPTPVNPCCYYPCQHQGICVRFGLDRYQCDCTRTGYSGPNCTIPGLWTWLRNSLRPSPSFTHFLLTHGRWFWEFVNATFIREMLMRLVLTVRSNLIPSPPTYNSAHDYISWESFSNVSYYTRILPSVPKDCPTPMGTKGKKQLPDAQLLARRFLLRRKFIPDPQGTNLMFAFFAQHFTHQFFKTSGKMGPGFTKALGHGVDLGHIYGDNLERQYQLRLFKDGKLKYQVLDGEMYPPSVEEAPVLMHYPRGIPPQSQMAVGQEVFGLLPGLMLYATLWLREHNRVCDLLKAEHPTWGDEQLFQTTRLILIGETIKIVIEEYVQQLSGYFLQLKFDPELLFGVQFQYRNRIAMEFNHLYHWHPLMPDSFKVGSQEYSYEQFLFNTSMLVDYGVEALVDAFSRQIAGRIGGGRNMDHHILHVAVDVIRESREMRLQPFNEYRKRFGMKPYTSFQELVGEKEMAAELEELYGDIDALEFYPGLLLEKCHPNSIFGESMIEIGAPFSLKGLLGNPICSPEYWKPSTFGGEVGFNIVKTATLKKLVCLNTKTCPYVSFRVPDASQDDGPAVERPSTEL

| SMILES | pIC50 [1] | pIC50 [2] | Ratio IC50 [3] | pIC50 [4] | Ratio IC50 [5] |
| --- | --- | --- | --- | --- | --- |
| CS(=O)(=O)c1ccc(-c2cc(C(F)(F)F)nc(NCc3ccc(F)cc3)n2)cc1 | < 4.00 |  |  |  |  |
| NS(=O)(=O)c1ccc(-n2nc(C(F)(F)F)cc2-c2ccc(I)cc2)cc1 |  | 5.09 | 10 |  |  |
| CS(=O)(=O)c1ccc(-c2cc(C(F)(F)F)nc(NCc3ccc(I)cc3)n2)cc1 | < 4.00 |  |  | 6.07 | > 100 |
| NS(=O)(=O)c1ccc(-c2cc(C(F)(F)F)nc(NCc3ccc(I)cc3)n2)cc1 | < 4.00 |  |  | 4.89 | > 7.5 |
| CS(=O)(=O)c1ccc(-c2cc(C(F)(F)F)nc(OCc3ccc(I)cc3)n2)cc1 | < 4.00 |  |  | 5.60 | > 40 |

Continued, values first:

| pIC50 [1] | pIC50 [2] | Ratio IC50 [3] | pIC50 [4] | Ratio IC50 [5] | SMILES |
| --- | --- | --- | --- | --- | --- |
|  | 5.28 |  |  |  | CS(=O)(=O)c1ccc(-n2nc(C(F)(F)F)cc2-c2ccc(I)cc2)cc1 |
|  | 7.22 |  |  |  | Cc1ccc(Nc2c(F)cccc2Cl)c(CC(=O)O)c1 [LUMIRACOXIB] |
|  | 5.60 | 10 |  |  | Cc1ccc(Nc2c(F)cccc2I)c(CC(=O)O)c1 |
